Where two headings read alike, the source gives them in different places.
System: HCMV
Assay type: cell-based
Conditions: L
Experimental: In example herpesvirus PRM assay methods shown herein, cell pellets were lysed in 2% SDS, 100 mM NaCl, 0.5 mM EDTA, 50 mM Tris, pH 8.2, and 50 μg of protein was reduced and alkylated with 25 mM TCEP and 50 mM CAM respectively for 20 min at 70° C. Proteins were then precipitated via methanol chloroform precipitation (Wessel & Flugg, Anal Biochem. 138(1):141-143, 1984), resuspended in 50 mM HEPES, pH 8.2 and digested overnight with trypsin (50:1 protein:enzyme w/w ratio). Digested peptides were desalted by SDB-RPS StageTip as previously described (Lum et al., Cell Syst., 7(6):[…], 2018; Greco et al., Methods Mol Biol 1410:39-63, 2016; Federspiel & Cristea, Methods Mol Biol., 1977:115-143, 2019).
Peptides (1.0 μg on column) were analyzed by LC-MS/MS using a Dionex Ultimate 3000 UHPLC coupled online to an EASYSpray ion source and a Q Exactive HF. Peptides were separated on an EASYSpray C18 column (75 μm×25 cm) heated to 50° C. using a linear gradient of 5% B to 32% B over 60 min at a flow rate of 250 nL/min and were ionized at 1.7 kv. Mobile phase A consisted of 0.1% FA in H2O and mobile phase B consisted of 0.1% FA, 2.9% H2O in ACN.
The PRM method was controlled by a peptide inclusion list with retention time windows of 6 min for selected precursor ions.
The PRM assay was developed and analyzed using the open-source software Skyline (Maclean et al., Bioinformatics 26(7):966-968, 2010). Summed area under the curve of 3-4 transitions per peptide was used for quantitation. Targeted peptides were normalized to host protein loading control peptides. Peptide values for each sample were scaled to the average of each peptide across all runs. The average of multiple peptides was used as the inferred value for the protein measurement when more than one peptide was quantified (Federspiel et al., PLoS Biol. 17(9):e3000437. Doi: 10.1371/journal.pbio.3000437). PRM quantitation data were graphed using the Python Seaborn and Matplotlib libraries.
MRC5 primary human fibroblasts (HFs) (ATCC CCL-171) were used as the model system for HSV-1 and HCMV infections and were cultured in complete growth medium (DMEM supplemented with 10% fetal bovine serum and 1% penicillin-streptomycin antibiotics) at 37° C. and 5% CO2. iSLK.219 cells harboring latent KSHV (a gift from Dr. Britt Glaunsinger, University of California, Berkeley) were grown in complete growth medium supplemented with 500 μg/ml hygromycin (ThermoFisher Scientific, 10687010) at 37° C. and 5% CO2. All cells were used for experiments within a maximum of 10 passages.
Wild type HSV-1 strain 17+ (a gift from Beate Sodeik, Hannover Medical School, Hannover, Germany) was propagated as previously described (Diner et al., 2015). Briefly, PO stocks were generated by electroporating pBAC-HSV-1 into U-2 OS cells. […] In a similar manner, wild type HCMV strain AD169 was produced from BAC electroporation into HFs and working stocks were propagated by infecting HFs at a low level. In both cases, cell-associated virus was released by sonication, combined with supernatant virus, then concentrated by ultracentrifugation (20,000 rpm, 2 hours, 4° C. with SW28 swinging bucket rotor [Beckman Coulter]) over a 10% ficoll (HSV-1) or 20% sorbitol (HCMV) cushion. Virus stock titers were determined by plaque assay for HSV-1 or tissue culture infectious dose (TCID50) for HCMV and infections were performed at a multiplicity of infection (MOI) of 3.
12 hours prior to virus infection or reactivation, cells were treated with either the small molecule drug or DMSO/PBS control at an equivalent volume. […] For infection cycles lasting longer than 24 hours, small molecule drugs were re-added to the cell culture medium every 24 hours. Upon collection, cells were rinsed with PBS, scraped into a microcentrifuge tube, pelleted by centrifugation, and rinsed again with PBS.

## Nc1ccn(C[C@@H](CO)OCP(=O)(O)O)c(=O)n1 [CDV, cidofovir]
Timepoint 48
  UL82 (P06726) protein, numerical value of heatmap FIG. 6C: 0.2148
  UL88 (P16731) protein, numerical value of heatmap FIG. 6C: 0.05021
  UL94 (P16800) protein, numerical value of heatmap FIG. 6C: 0.09258
  UL99 (P13200) protein, numerical value of heatmap FIG. 6C: 0.06513
  UL103 (P16734) protein, numerical value of heatmap FIG. 6C: 0.1954
  UL117 (P16770) protein, numerical value of heatmap FIG. 6C: 0.3875
  gH (P12824) protein, numerical value of heatmap FIG. 6C: 0.1304
  gL (P16832) protein, numerical value of heatmap FIG. 6C: 0.06908
  gM (P16733) protein, numerical value of heatmap FIG. 6C: 0.03119
  gN (P16795) protein, numerical value of heatmap FIG. 6C: 0.07597
  sp|P16809|IR11_HCMVA (P16809) protein, numerical value of heatmap FIG. 6C: 0.502
Timepoint 72
  CVC1 (P16799) protein, numerical value of heatmap FIG. 6C: 0.4079
  GO (P16750) protein, numerical value of heatmap FIG. 6C: 0.601
  MCP (P16729) protein, numerical value of heatmap FIG. 6C: 0.4006
  SCP (Q7M6N6) protein, numerical value of heatmap FIG. 6C: 0.3733
  TRM2 (P16792) protein, numerical value of heatmap FIG. 6C: 0.5505
  UL22A (P16845) protein, numerical value of heatmap FIG. 6C: 0.4199
  UL25 (P16761) protein, numerical value of heatmap FIG. 6C: 0.4606
  UL29 (P16764) protein, numerical value of heatmap FIG. 6C: 0.8549
  UL30 (P16765) protein, numerical value of heatmap FIG. 6C: 0.4115
  UL31 (P16848) protein, numerical value of heatmap FIG. 6C: 0.4223
  UL43 (P16781) protein, numerical value of heatmap FIG. 6C: 0.2402
  UL52 (P16793) protein, numerical value of heatmap FIG. 6C: 0.4658
  UL76 (P16725) protein, numerical value of heatmap FIG. 6C: 0.3035
  UL79 (P16752) protein, numerical value of heatmap FIG. 6C: 0.4713
  UL80 (P16753) protein, numerical value of heatmap FIG. 6C: 0.6581
  UL82 (P06726) protein, numerical value of heatmap FIG. 6C: 0.4947
  UL88 (P16731) protein, numerical value of heatmap FIG. 6C: 0.4289
  UL94 (P16800) protein, numerical value of heatmap FIG. 6C: 0.5474
  UL99 (P13200) protein, numerical value of heatmap FIG. 6C: 0.455
  UL103 (P16734) protein, numerical value of heatmap FIG. 6C: 0.5642
  UL117 (P16770) protein, numerical value of heatmap FIG. 6C: 0.5867
  gH (P12824) protein, numerical value of heatmap FIG. 6C: 0.7542
  gL (P16832) protein, numerical value of heatmap FIG. 6C: 0.5073
  gM (P16733) protein, numerical value of heatmap FIG. 6C: 0.477
  gN (P16795) protein, numerical value of heatmap FIG. 6C: 0.5141
  sp|P16809|IR11_HCMVA (P16809) protein, numerical value of heatmap FIG. 6C: 0.869
Timepoint 96
  CVC1 (P16799) protein, numerical value of heatmap FIG. 6C: 0.6
  GO (P16750) protein, numerical value of heatmap FIG. 6C: 0.5678
  MCP (P16729) protein, numerical value of heatmap FIG. 6C: 0.8755
  SCP (Q7M6N6) protein, numerical value of heatmap FIG. 6C: 0.678
  TRM2 (P16792) protein, numerical value of heatmap FIG. 6C: 0.8343
  UL22A (P16845) protein, numerical value of heatmap FIG. 6C: 0.5842
  UL25 (P16761) protein, numerical value of heatmap FIG. 6C: 0.8443
  UL29 (P16764) protein, numerical value of heatmap FIG. 6C: 0.8921
  UL30 (P16765) protein, numerical value of heatmap FIG. 6C: 0.5445
  UL31 (P16848) protein, numerical value of heatmap FIG. 6C: 0.6245
  UL43 (P16781) protein, numerical value of heatmap FIG. 6C: 0.7777
  UL52 (P16793) protein, numerical value of heatmap FIG. 6C: 0.8766
  UL76 (P16725) protein, numerical value of heatmap FIG. 6C: 0.421
  UL79 (P16752) protein, numerical value of heatmap FIG. 6C: 0.5586

Source: patent publication US20240027453A1, “METHOD FOR DETECTION AND QUANTITATIVE MONITORING OF INFECTIONS WITH HERPESVIRUSES” (The Trustees of Princeton University, priority 2020, published 2024)
